# Legend:
# Assay type in all cases: in vivo
# [1] = tested on: Sunflower; assay: Test C preemergence; conditions: visual evaluation after 12 to 14 days
# [2] = tested on: barnyardgrass (Echinochloa crus-galli); assay: Test B preemergence
# In short: (§1)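 Preemergence: seeds planted and treated with test chemicals in non-phytotoxic solvent with surfactant; postemergence on plants 2–18 cm (1- to 4-leaf stage). Kept in greenhouse 13–15 days, then visually rated against controls on a 0 (no effect) to 100 (complete control) scale.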
# [3] = tested on: rice (Oryza saliva); assay: Test B preemergence
# In short: as §1
# [4] = tested on: pigweed (Amaranthus retroflexus); assay: Test B preemergence
# In short: as §1
# [5] = tested on: cocklebur (Xanthium strumarium); assay: Test B preemergence
# In short: as §1
# [6] = tested on: crabgrass (Digitaria sanguinalis); assay: Test B preemergence
# In short: as §1
# [7] = tested on: Surinam grass (Brachiaria decumbens); assay: Test B preemergence
# In short: as §1
# [8] = tested on: corn (Zea mays); assay: Test B preemergence
# In short: as §1
# [9] = tested on: morning glory (Ipomoea hederacea); assay: Test B preemergence
# In short: as §1
# [10] = tested on: velvetleaf (Abutilon theophrasti); assay: Test B preemergence
# In short: as §1
# [11] = tested on: giant foxtail (Setaria faberii); assay: Test B preemergence
# In short: as §1
# [12] = tested on: Sunflower; assay: Test C preemergence; conditions: scale 0 to 100, 0 no effect, 100 complete control
# Excerpt: (§2) Seeds of plant species selected from bermudagrass (Cynodon dactylon), Surinam grass (Brachiaria decumbens), cocklebur (Xanthium strumarium), corn (Zea mays), crabgrass (Digitaria sanguinalis), woolly cupgrass (Eriochloa villosa), giant foxtail (Setaria faberii), goosegrass (Eleusine indica), johnsongrass (Sorghum halepense), kochia (Kochia scoparia), lambsquarters (Chenopodium album), morningglory (Ipomoea hederacea), yellow nutsedge (Cyperus esculentus), pigweed (Amaranthus retroflexus), common ragweed (Ambrosia elatior), soybean (Glycine max) and velvetleaf (Abutilon theophrasti) were planted and treated preemergence with test chemicals formulated in a non-phytotoxic solvent mixture which included a surfactant.
# (§3) At the same time, plants selected from these crop and weed species and also winter barley (Hordeum vulgare), blackgrass (Alopecurus myosuroides), canary grass (Phalaris minor), chickweed (Stellaria media), downy brome (Bromus tectorum), green foxtail (Setaria viridis), Italian ryegrass (Lolium multiflorum), wheat (Triticum aestivum), wild oat (Avena fatua) and windgrass (Apera spica-venti) were treated with postemergence applications of some of the test chemicals formulated in the same manner. Plants ranged in height from 2 to 18 cm (1- to 4-leaf stage) for postemergence treatments. Plant species in the flooded paddy test consisted of rice (Oryza saliva), smallflower flatsedge (Cyperus difformis), duck salad (Heteranthera limosa) and barnyardgrass (Echinochloa crus-galli) grown to the 2-leaf stage for testing. Treated plants and controls were maintained in a greenhouse for 12 to 14 days, after which time all species were compared to controls and visually evaluated. Plant response ratings, summarized in Table C, are based on a scale of 0 to 100 where 0 is no effect and 100 is complete control. A dash (-) response means no test result.
# [13] = tested on: goosegrass (Eleusine indica); assay: Test C preemergence; conditions: for Plant response rating (0 to 100), Goosegrass: visual evaluation after 12 to 14 days
# Excerpt: as §2, §3
# [14] = tested on: cocklebur (Xanthium strumarium); assay: Test C preemergence; conditions: for Plant response rating (0 to 100), Cocklebur: visual evaluation after 12 to 14 days
# Excerpt: as §2, §3
# [15] = tested on: crabgrass (Digitaria sanguinalis); assay: Test C preemergence; conditions: for Plant response rating (0 to 100), Crabgrass: visual evaluation after 12 to 14 days
# Excerpt: as §2, §3
# [16] = tested on: morningglory (Ipomoea hederacea); assay: Test C preemergence; conditions: for Plant response rating (0 to 100), Morningglory: visual evaluation after 12 to 14 days
# Excerpt: as §2, §3
# [17] = tested on: Surinam grass (Brachiaria decumbens); assay: Test C preemergence; conditions: for Plant response rating (0 to 100), Surinam grass: visual evaluation after 12 to 14 days
# Excerpt: as §2, §3
# [18] = tested on: bermudagrass (Cynodon dactylon); assay: Test C preemergence; conditions: for Plant response rating (0 to 100 where 0 is no effect and 100 is complete control), Bermudagrass: visual evaluation after 12 to 14 days
# Excerpt: as §2, §3
# [19] = tested on: common ragweed (Ambrosia elatior); assay: Test C preemergence
# Excerpt: as §2, §3
# [20] = tested on: velvetleaf (Abutilon theophrasti); assay: Test C preemergence; conditions: for Plant response rating (0 to 100), Velvetleaf: visual evaluation after 12 to 14 days
# Excerpt: as §2, §3
# [21] = tested on: giant foxtail (Setaria faberii); assay: Test C preemergence; conditions: for Plant response rating (0 to 100), Foxtail, Giant: visual evaluation after 12 to 14 days
# Excerpt: as §2, §3
# [22] = tested on: lambsquarters (Chenopodium album); assay: Test B preemergence; conditions: scale 0 to 100, 0 no effect, 100 complete control
# In short: as §1
# [23] = Preemergence, Rate 500 g/ha, scale 0 to 100, 0 no effect, 100 complete control
# [24] = preemergence, Rate 125 g/ha, scale of 0 to 100 where 0 is no effect and 100 is complete control, 13 to 15 days
# [25] = Rate 125 g/ha, scale 0 to 100, 0 no effect, 100 complete control
# [26] = preemergence, Rate 62 g/ha, scale 0 to 100
# [27] = preemergence, Rate 250 g/ha, scale 0 to 100, 0 no effect, 100 complete control
# [28] = preemergence, Rate 125 g/ha, scale 0 to 100, 0 no effect, 100 complete control
# [29] = Rate 62 g/ha, scale 0 to 100, 0 no effect, 100 complete control
# [30] = preemergence, Rate 31 g/ha, scale 0 to 100
compound,measurement,setting,value
CCC(CC)c1ccn(C2CCN(c3cccc(OC(C)C)c3)C2=O)n1 (stereo not drawn) [Compound 84],"Plant response rating (0 to 100), Sunflower",[1]; Rate 500 g/ha,30
same,"Plant response rating, Barnyardgrass",[2]; [23],100
same,"Plant response rating, Barnyardgrass",[2]; [24],100
same,"Plant response rating, Rice",[3]; [23],100
same,"Plant response rating, Rice",[3]; [24],0
same,"Plant response rating, Pigweed",[4]; [23],100
same,"Plant response rating, Pigweed",[4]; [24],100
same,"Plant response rating, Cocklebur",[5]; [23],0
same,"Plant response rating, Cocklebur",[5]; [24],0
same,"Plant response rating, Crabgrass",[6]; [23],100
same,"Plant response rating, Crabgrass",[6]; [24],100
same,"Plant response rating, Surinam grass",[7]; [23],100
same,"Plant response rating, Surinam grass",[7]; [24],80
same,"Plant response rating, Corn",[8]; [23],20
same,"Plant response rating, Corn",[8]; [24],0
same,"Plant response rating, Morningglory",[9]; [23],0
same,"Plant response rating, Morningglory",[9]; [24],0
same,"Plant response rating, Velvetleaf",[10]; [23],0
same,"Plant response rating, Velvetleaf",[10]; [24],0
same,"Plant response rating, Foxtail, Giant",[11]; [23],100
same,"Plant response rating, Foxtail, Giant",[11]; [24],100
same,"Plant response rating, Sunflower",[12]; Rate 125 g/ha,10
same,"Plant response rating, Goosegrass",[13]; [25],80
same,"Plant response rating, Goosegrass",[13]; [26],20
same,"Plant response rating (0 to 100), Goosegrass","[13]; preemergence, Rate 250 g/ha",90
same,"Plant response rating (0 to 100), Goosegrass","[13]; preemergence, Rate 500 g/ha",100
same,"Plant response rating, Cocklebur",[14]; [25],0
same,"Plant response rating, Cocklebur",[14]; [26],0
same,"Plant response rating (0 to 100), Cocklebur","[14]; preemergence, Rate 250 g/ha",0
same,"Plant response rating (0 to 100), Cocklebur","[14]; preemergence, Rate 500 g/ha",0
same,"Plant response rating, Crabgrass",[15]; [25],100
same,"Plant response rating, Crabgrass",[15]; [26],90
same,"Plant response rating (0 to 100), Crabgrass","[15]; preemergence, Rate 250 g/ha",100
same,"Plant response rating (0 to 100), Crabgrass","[15]; preemergence, Rate 500 g/ha",100
same,"Plant response rating, Morningglory",[16]; [25],20
same,"Plant response rating, Morningglory",[16]; [26],0
same,"Plant response rating (0 to 100), Morningglory","[16]; preemergence, Rate 500 g/ha",20
same,"Plant response rating, Morningglory",[16]; [27],20
same,"Plant response rating, Surinam grass",[17]; [25],0
same,"Plant response rating, Surinam grass",[17]; [26],0
same,"Plant response rating (0 to 100), Surinam grass","[17]; preemergence, Rate 250 g/ha",30
same,"Plant response rating (0 to 100), Surinam grass","[17]; preemergence, Rate 500 g/ha",80
same,"Plant response rating, Bermudagrass",[18]; [25],100
same,"Plant response rating, Bermudagrass",[18]; [26],100
same,"Plant response rating (0 to 100 where 0 is no effect and 100 is complete control), Bermudagrass","[18]; preemergence, Rate 250 g/ha",100
same,"Plant response rating (0 to 100 where 0 is no effect and 100 is complete control), Bermudagrass","[18]; preemergence, Rate 500 g/ha",100
same,"Plant response rating, Ragweed, Common",[19]; [25],0
same,"Plant response rating, Ragweed, Common",[19]; [26],0
same,"Plant response rating (0 to 100), Ragweed, Common","[19]; preemergence, Rate 500 g/ha, visual evaluation after 12 to 14 days",0
same,"Plant response rating, Ragweed, Common",[19]; [27],0
same,"Plant response rating, Velvetleaf",[20]; [25],0
same,"Plant response rating, Velvetleaf",[20]; [26],0
same,"Plant response rating (0 to 100), Velvetleaf","[20]; preemergence, Rate 500 g/ha",0
same,"Plant response rating, Velvetleaf",[20]; [27],0
same,"Plant response rating, Foxtail, Giant",[21]; [25],80
same,"Plant response rating, Foxtail, Giant",[21]; [26],10
same,"Plant response rating (0 to 100), Foxtail, Giant","[21]; preemergence, Rate 250 g/ha",100
same,"Plant response rating (0 to 100), Foxtail, Giant","[21]; preemergence, Rate 500 g/ha",100
CC(C)c1ccn(C2OCN(c3cccc(C(F)(F)F)c3)C2=O)n1 (stereo not drawn) [Compound 27],"Plant response rating (0 to 100), Sunflower",[1]; Rate 250 g/ha,20
same,"Plant response rating, Barnyardgrass",[2]; [23],100
same,"Plant response rating, Barnyardgrass",[2]; [28],30
same,"Plant response rating, Rice",[3]; [23],40
same,"Plant response rating, Rice",[3]; [28],0
same,"Plant response rating, Pigweed",[4]; [23],100
same,"Plant response rating, Pigweed",[4]; [28],100
same,"Plant response rating, Cocklebur",[5]; [23],0
same,"Plant response rating, Cocklebur",[5]; [28],0
same,"Plant response rating, Lambsquarters","[22]; Preemergence, Rate 500 g/ha",100
same,"Plant response rating, Lambsquarters","[22]; preemergence, Rate 125 g/ha",100
same,"Plant response rating, Crabgrass",[6]; [23],90
same,"Plant response rating, Crabgrass",[6]; [28],0
same,"Plant response rating, Surinam grass",[7]; [23],0
same,"Plant response rating, Surinam grass",[7]; [28],0
same,"Plant response rating, Corn",[8]; [23],0
same,"Plant response rating, Corn",[8]; [28],0
same,"Plant response rating, Morningglory",[9]; [23],0
same,"Plant response rating, Morningglory",[9]; [28],0
same,"Plant response rating, Velvetleaf",[10]; [23],0
same,"Plant response rating, Velvetleaf",[10]; [28],0
same,"Plant response rating, Foxtail, Giant",[11]; [23],90
same,"Plant response rating, Foxtail, Giant",[11]; [28],0
same,"Plant response rating, Sunflower",[12]; Rate 62 g/ha,20
same,"Plant response rating, Goosegrass",[13]; [29],90
same,"Plant response rating, Goosegrass",[13]; [30],40
same,"Plant response rating (0 to 100), Goosegrass","[13]; preemergence, Rate 250 g/ha",100
same,"Plant response rating, Goosegrass",[13]; [28],100
same,"Plant response rating, Cocklebur",[14]; [29],0
same,"Plant response rating, Cocklebur",[14]; [30],0
same,"Plant response rating (0 to 100), Cocklebur","[14]; preemergence, Rate 250 g/ha",0
same,"Plant response rating, Cocklebur",[14]; [28],0
same,"Plant response rating, Crabgrass",[15]; [29],100
same,"Plant response rating, Crabgrass",[15]; [30],90
same,"Plant response rating (0 to 100), Crabgrass","[15]; preemergence, Rate 250 g/ha",100
same,"Plant response rating, Crabgrass",[15]; [28],100
same,"Plant response rating, Morningglory",[16]; [29],20
same,"Plant response rating, Morningglory",[16]; [30],0
same,"Plant response rating (0 to 100), Morningglory","[16]; preemergence, Rate 250 g/ha",30
same,"Plant response rating, Morningglory",[16]; [28],20
same,"Plant response rating, Surinam grass",[17]; [29],50
same,"Plant response rating, Surinam grass",[17]; [30],0
same,"Plant response rating (0 to 100), Surinam grass","[17]; preemergence, Rate 250 g/ha",80
same,"Plant response rating, Surinam grass",[17]; [28],50
same,"Plant response rating, Bermudagrass",[18]; [29],90
same,"Plant response rating, Bermudagrass",[18]; [30],30
same,"Plant response rating (0 to 100 where 0 is no effect and 100 is complete control), Bermudagrass","[18]; preemergence, Rate 250 g/ha",100
same,"Plant response rating, Bermudagrass",[18]; [28],100
same,"Plant response rating, Velvetleaf",[20]; [29],0
same,"Plant response rating, Velvetleaf",[20]; [30],0
same,"Plant response rating (0 to 100), Velvetleaf","[20]; preemergence, Rate 250 g/ha",0
same,"Plant response rating, Velvetleaf",[20]; [28],0
same,"Plant response rating, Foxtail, Giant",[21]; [29],70
same,"Plant response rating, Foxtail, Giant",[21]; [30],0
same,"Plant response rating (0 to 100), Foxtail, Giant","[21]; preemergence, Rate 250 g/ha",0
same,"Plant response rating, Foxtail, Giant",[21]; [28],100

# Source: patent US7138361B2, “Herbicidal heterocycles” (E. I. du Pont de Nemours and Company, priority 2000, dated 2006)
